Measurements from US10064848B2, “Pyridic ketone derivatives, method of preparing same, and pharmaceutical application thereof” (Shanghai Hengrui Pharmaceutical Co., Ltd., priority 2013, dated 2018).

Tests used:
[1] = target: T1, MEK1 (Recombinant Human Protein) (Homo sapiens, UniProt Q02750); experiment: MEK1 kinase inhibition assay (Z'-LYTE Kinase Assay Kit-Ser/Thr 03 Peptide); assay type: biochemical; conditions: 4 hours at 37° C, read-out: IC50 for inhibiting MEK kinase (MEK1)
T1 construct: purchased Invitrogen PV3093
Procedure: MEK1 kinase activity was tested in vitro by the following method.
MEK kinase used in the assay: MEK1 (Recombinant Human Protein, Invitrogen, Catalog No. PV3093).
Kit used in the assay: Z′-LYTE™ Kinase Assay Kit-Ser/Thr 03 Peptide (Invitrogen, Catalog No. PV3176).
The following in vitro assay was used to determine the activity of the compounds of the present invention for inhibiting the […] MEK kinase. The test compound was dissolved in dimethyl sulfoxide to the desired concentration. 1× Buffer A (Invitrogen, Catalog No. PV3189) was prepared, ATP was diluted with 1× Buffer A to obtain 400 μM ATP solution, appropriate amounts of Z′-LYTE™ Ser/Thr 03 Peptide (Invitrogen, Catalog No. PV3200), MEK kinase (MEK1) Enzymes and 1× Buffer A were mixed, and appropriate amounts of Z′-LYTE™ Ser/Thr 03 phosphoPeptide substrate (Invitrogen, Catalog No. PV3215) and 1× Buffer A were formulated into a mixture to be tested. The 4% DMSO solution of the test compound was prepared from 1× buffer and DMSO solution of the test compound. 2.5 μL DMSO solution of the test compound was added to a reaction well, and then 1× Buffer A, 2.5 μL of 400 μM ATP solution, 5 μL of enzyme and substrate mixture were added to become a 10 μL of reaction system. The reaction system was incubated for 4 hours at 37° C., and a mixture was prepared according to Reagent A:Buffer B=1:1024. 5 μL of a mixture of Reagent A (Invitrogen, Catalog No. PV3295) and Buffer B (Invitrogen, Catalog No. P3127) was added to a reaction well, the reaction system was incubated for 60 minutes at 25° C. The fluorescence was read by a NovoStar ELISA with excitation wavelength: 400 nm, and emission wavelength: 445 nm and 520 nm.
The activity of the compounds of the present invention: The above assay was used to determine the biochemical activity of the compounds of the present invention for inhibiting MEK kinase (MEK1).

Colo205 cell = experiment: Proliferation inhibition on Colo205 (CCK8); assay type: cell-based; conditions: Homo sapiens, COLO 205, Colo205, 72 hours
From the text: Cell line used in the assay: Colo205 (Cell Bank of the Chinese Academy of Sciences, Catalog No. TCHu102).
The following in vitro cell assay is to determine the activity of the compounds of the present invention for inhibiting the proliferation of human colon cancer cell, and the activity is expressed as IC50. General programs of this kind of assay were as follows: First, the cell line to be tested (purchased from Cell Bank of the Chinese Academy of Sciences) was inoculated in a 96-well culture plate with a suitable cell concentration of 4000 cells/mL medium, and was cultured in a carbon dioxide incubator at 37° C., then grown overnight. The medium was replaced by new medium added with a series of concentrations (10000 nM, 1000 nM, 100 nM, 10 nM, 1 nM, 0.1 nM) of the test compound solutions. The plates were placed back in the incubator, and continuously cultured for 72 hours. After 72 hours, CCK8 (Cell Counting Kit-8, Catalog No.: CK04, purchased from colleagues chemical company) method was used to determine the proliferation inhibition activity of the test compounds. IC50 values were calculated from the inhibition data of the test compounds at a series of different concentrations.
The above assay was used to determine the biochemical activity of the compounds of the present invention.

T1 sequence (Q02750 whole entry): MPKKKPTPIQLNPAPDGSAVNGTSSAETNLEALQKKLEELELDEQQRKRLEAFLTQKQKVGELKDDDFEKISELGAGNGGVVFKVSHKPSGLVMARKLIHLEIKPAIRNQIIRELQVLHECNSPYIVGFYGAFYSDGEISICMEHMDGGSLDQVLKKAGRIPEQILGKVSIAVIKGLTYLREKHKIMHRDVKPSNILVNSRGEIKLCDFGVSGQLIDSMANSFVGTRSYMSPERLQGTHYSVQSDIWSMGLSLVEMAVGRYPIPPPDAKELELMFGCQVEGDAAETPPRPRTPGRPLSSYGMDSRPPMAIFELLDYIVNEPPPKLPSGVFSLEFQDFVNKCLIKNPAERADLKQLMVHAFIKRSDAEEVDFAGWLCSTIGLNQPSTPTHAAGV

Row | IC50 [1] [nM] | IC50 (Colo205 cell) [nM] | SMILES
1 | 6.3 | 4.3 | CNC(=O)c1cccc(Oc2cc(=O)n(C)c(Nc3ccc(I)cc3F)c2C(N)=O)c1C [Example 10, 4-(2-methyl-3-(methylcarbamoyl)phenoxy)-2-((2-fluoro-4-iodophenyl)amino)-1-methyl-6-oxo-1,6-dihydropyridine-3-carboxamide]
2 | 3.4 | – | CCS(=O)(=O)Nc1cccc(Oc2c(C(N)=O)c(Nc3ccc(I)cc3F)n(C)c(=O)c2F)c1C [Example 6, 4-(3-(ethylsulfonamido)-2-methylphenoxy)-2-((2-fluoro-4-iodophenyl)amino)-1-methyl-5-fluoro-6-oxo-1,6-dihydropyridine-3-carboxamide]
3 | 28.3 | – | Cc1c(F)cccc1Oc1cc(=O)n(C)c(Nc2ccc(I)cc2F)c1C(=O)NC[C@@H](O)CO [Example 27, (R)-N-(2,3-dihydroxypropyl)-4-(3-fluoro-2-methylphenoxy)-2-((2-fluoro-4-iodophenyl)amino)-1-methyl-6-oxo-1,6-dihydropyridine-3-carboxamide]
4 | 3.9 | – | Cc1c(F)cccc1Oc1c(C(N)=O)c(Nc2ccc(I)cc2F)n(C)c(=O)c1F [Example 26, 5-fluoro-4-(3-fluoro-2-methylphenoxy)-2-((2-fluoro-4-iodophenyl)amino)-1-methyl-6-oxo-1,6-dihydropyridine-3-carboxamide]
5 | 4.2 | 0.4 | Cc1ccccc1Oc1cc(=O)n(C)c(Nc2ccc(I)cc2F)c1C(N)=O [Example 23, 4-(2-methylphenoxy)-2-((2-fluoro-4-iodophenyl)amino)-1-methyl-6-oxo-1,6-dihydropyridine-3-carboxamide]
6 | 5.5 | 2.9 | CC(=O)c1cccc(Oc2cc(=O)n(C)c(Nc3ccc(I)cc3F)c2C(N)=O)c1C [Example 13, 4-(3-acetyl-2-methylphenoxy)-2-((2-fluoro-4-iodophenyl)amino)-1-methyl-6-oxo-1,6-dihydropyridine-3-carboxamide]
7 | 7.9 | 1.4 | Cc1cccc(Oc2cc(=O)n(C)c(Nc3ccc(I)cc3F)c2C(N)=O)c1C [Example 18, 4-(2,3-dimethylphenoxy)-2-((2-fluoro-4-iodophenyl)amino)-1-methyl-6-oxo-1,6-dihydropyridine-3-carboxamide]
8 | 5.5 | 4 | Cc1cc(Oc2cc(=O)n(C)c(Nc3ccc(I)cc3F)c2C(N)=O)ccn1 [Example 32, 2-((2-fluoro-4-iodophenyl)amino)-1-methyl-4-((2-methylpyridin-4-yl)oxy)-6-oxo-1,6-dihydropyridine-3-carboxamide]
9 | 4 | 3.1 | Cc1c(O)cccc1Oc1cc(=O)n(C)c(Nc2ccc(I)cc2F)c1C(N)=O [Example 24, 4-(3-hydroxy-2-methylphenoxy)-2-((2-fluoro-4-iodophenyl)amino)-1-methyl-6-oxo-1,6-dihydropyridine-3-carboxamide]
10 | 6.3 | 10.2 | Cc1cccc(C)c1Oc1cc(=O)n(C)c(Nc2ccc(I)cc2F)c1C(N)=O [Example 21, 4-(2,6-dimethylphenoxy)-2-((2-fluoro-4-iodophenyl)amino)-1-methyl-6-oxo-1,6-dihydropyridine-3-carboxamide]
11 | 5.5 | 0.4 | Cc1c(NC(=O)C2CC2)cccc1Oc1cc(=O)n(C)c(Nc2ccc(I)cc2F)c1C(N)=O [Example 7, 4-(3-(cyclopropanecarboxamido)-2-methylphenoxy)-2-((2-fluoro-4-iodophenyl)amino)-1-methyl-6-oxo-1,6-dihydropyridine-3-carboxamide]
12 | 8.4 | 2 | Cc1ccc(Oc2cc(=O)n(C)c(Nc3ccc(I)cc3F)c2C(N)=O)c(F)c1 [Example 17, 4-(2-fluoro-4-methylphenoxy)-2-((2-fluoro-4-iodophenyl)amino)-1-methyl-6-oxo-1,6-dihydropyridine-3-carboxamide]
13 | 4 | – | CCS(=O)(=O)Nc1cccc(Oc2c(C(N)=O)c(Nc3ccc(I)cc3F)n(C)c(=O)c2Cl)c1C [Example 5, 4-(3-(ethylsulfonamido)-2-methylphenoxy)-2-((2-fluoro-4-iodophenyl)amino)-1-methyl-5-chloro-6-oxo-1,6-dihydropyridine-3-carboxamide]
14 | 6 | 0.3 | Cc1c(Oc2cc(=O)n(C)c(Nc3ccc(I)cc3F)c2C(N)=O)cccc1O[C@H]1CCOC1 [Example 9, (S)-2-((2-fluoro-4-iodophenyl)amino)-1-methyl-4-(2-methyl-3-((tetrahydrofuran-3-yl)oxy)phenoxy)-6-oxo-1,6-dihydropyridine-3-carboxamide]
15 | 7.3 | – | Cc1ccncc1Oc1cc(=O)n(C)c(Nc2ccc(I)cc2F)c1C(N)=O [Example 33, 2-((2-fluoro-4-iodophenyl)amino)-1-methyl-4-((4-methylpyridin-3-yl)oxy)-6-oxo-1,6-dihydropyridine-3-carboxamide]
16 | 5.8 | 0.8 | Cc1cccc(Oc2cc(=O)n(C)c(Nc3ccc(I)cc3F)c2C(N)=O)c1F [Example 19, 4-(2-fluoro-3-methylphenoxy)-2-((2-fluoro-4-iodophenyl)amino)-1-methyl-6-oxo-1,6-dihydropyridine-3-carboxamide]
17 | 19 | 4.7 | CCS(=O)(=O)Nc1cccc(Oc2cc(=O)n(C)c(Nc3ccc(I)cc3F)c2C(=O)NC)c1C [Example 2, N,1-dimethyl-4-(3-(ethylsulfonamido)-2-methylphenoxy)-2-((2-fluoro-4-iodophenyl)amino)-6-oxo-1,6-dihydropyridine-3-carboxamide]
18 | 3.2 | 0.5 | CCC(=O)Nc1cccc(Oc2cc(=O)n(C)c(Nc3ccc(I)cc3F)c2C(N)=O)c1C [Example 8, 4-(3-propionamido-2-methylphenoxy)-2-((2-fluoro-4-iodophenyl)amino)-1-methyl-6-oxo-1,6-dihydropyridine-3-carboxamide]
19 | 8.2 | 10.2 | Cc1ccc(Oc2cc(=O)n(C)c(Nc3ccc(I)cc3F)c2C(N)=O)c(Cl)c1 [Example 15, 4-(2-chloro-4-methylphenoxy)-2-((2-fluoro-4-iodophenyl)amino)-1-methyl-6-oxo-1,6-dihydropyridine-3-carboxamide]
20 | 5.5 | 4.3 | Cc1c(Oc2cc(=O)n(C)c(Nc3ccc(I)cc3F)c2C(N)=O)cccc1C(=O)NC1CC1 [Example 11, 4-(3-(cyclopropylcarbamoyl)-2-methylphenoxy)-2-((2-fluoro-4-iodophenyl)amino)-1-methyl-6-oxo-1,6-dihydropyridine-3-carboxamide]
21 | 5.1 | 0.7 | Cc1c(Oc2cc(=O)n(C)c(Nc3ccc(I)cc3F)c2C(N)=O)cccc1O[C@@H]1CCOC1 [Example 12, (R)-2-((2-fluoro-4-iodophenyl)amino)-1-methyl-4-(2-methyl-3-((tetrahydrofuran-3-yl)oxy)phenoxy)-6-oxo-1,6-dihydropyridine-3-carboxamide]
22 | 9.5 | 11.5 | COc1cccc(Oc2cc(=O)n(C)c(Nc3ccc(I)cc3F)c2C(N)=O)c1C [Example 16, 4-(3-methoxy-2-methylphenoxy)-2-((2-fluoro-4-iodophenyl)amino)-1-methyl-6-oxo-1,6-dihydropyridine-3-carboxamide]
23 | 26 | – | Cc1c(F)cccc1Oc1cc(=O)n(C)c(Nc2ccc(I)cc2F)c1C(=O)NC[C@H](O)CO [Example 28, (S)-N-(2,3-dihydroxypropyl)-4-(3-fluoro-2-methylphenoxy)-2-((2-fluoro-4-iodophenyl)amino)-1-methyl-6-oxo-1,6-dihydropyridine-3-carboxamide]
24 | 5.9 | 1 | Cc1ccc(F)cc1Oc1cc(=O)n(C)c(Nc2ccc(I)cc2F)c1C(N)=O [Example 25, 4-(5-fluoro-2-methylphenoxy)-2-((2-fluoro-4-iodophenyl)amino)-1-methyl-6-oxo-1,6-dihydropyridine-3-carboxamide]
